System: Sca+Lin- progenitors
Assay: Generation of murine dendritic cells from bone marrow Sca+ progenitors, cell surface phenotype (Example 13)
Format: cell-based, C57BL/6 mice
Conditions: 10 μM
Excerpt: Mouse bone marrow from inbred C57BL/6 mice are obtained from Clonetics. Hematopoietic Sca+Lin− progenitors are enriched using SpinSep murine progenitor enrichment cocktail (StemCell Technologies) and cultured in Iscove's MDM with BUI 95000 (StemCell Technologies) in the presence of murine growth factors SCF, Flt3L, GM-CSF and M-CSF for 9 days, to promote expansion of Sca+ cells and a DC precursor phenotype and then in the presence of GM-CSF and TNF-α for 3 additional days to drive the cells to an immature DC phenotype. Enriched Sca+Lin− cells are cultured in the presence of DMSO (0.1%), SelCIDs™ at 10 μM or all-trans retinoic acid (ATRA) (ICN Biomedicals) at 10 μM from day 0. Compounds are added to cells at day 0 and day 9.
Analysis of Murine cell surface phenotype: murine cells are processed for double staining (14 min at RT) at day 9 and day 12; using FITC and PE conjugated mAbs. Antibodies used are from BD Pharmingen: Sca (PE), CD11b (FITC), Gr-1 ([…]), CD86 (PE), CD14 (PE), CD80 (PE), I-Ab (PE), CD40 (PE) and CD32.1/16.1 (FITC) from Miltenyi. Fluorescence analysis is performed on a FACScan flow cytometer ([…]) after acquisition of 10,000 events.

CC1=C(/C=C/C(C)=C/C=C/C(C)=C/C(=O)O)C(C)(C)CCC1 [ATRA, all-trans retinoic acid]
CD80, I-A^b and Sca+ expression (by day 9): marked downregulation
expression of CD40 and CD80 (by day 12): marked downregulation
